System: T cells generated with E. coli expressed polytope
Experiment: ELISPOT with in vitro translated epitope peptides on the polytope-generated T cell line (FIG. 10)
Assay type: cell-based, human
Protocol: An exemplary synthetic DNA template for creating neoepitope peptides in vitro is depicted below, and the corresponding sequences are shown in SEQ ID NO:18, SEQ ID NO:19, SEQ ID NO:20, and SEQ ID NO:21 respectively.
One template strand oligo per epitope plus sense strand universal promoter oligo was used. […] Rather the reaction required simply adding annealed oligos to expression mix, and the mixture was allowed to react for 2 hours.

Sequence | Recognition of epitope by T cells in the T cell line
WQAGILARNLVPMVATVQGQNLKYQ (IVT&T peptide9) | recognized by T cells
FMRPHERNGFTVLCPKNMIIKPGKI [E6] | recognized by T cells

Source: patent publication US20230236172A1, “T Cells That Respond To Patient Neoepitopes” (NantCell, Inc., priority 2020, published 2023)
